US11129827B2 (priority 2017, dated 2021)
Like-named read-outs stand apart in the source and are kept apart here.

Legend:
FAAH = FAAH (Homo sapiens (Human), UniProt O00519); experiment: biochemical; conditions: for inhibition at 1 µM: read-out: FAAH (human) % inh. 1 μM
MAGL = MAGL (Homo sapiens (Human), UniProt Q99685); experiment: biochemical; conditions: for inhibition at 1 µM: read-out: MAGL (human) % inh. 1 μM

Structure (SMILES) | inhibition at 1 µM (FAAH) [%] | IC50 (FAAH; read-out: FAAH (human) IC50) [nM] | inhibition at 1 µM (MAGL) [%] | IC50 (MAGL; read-out: MAGL (human) IC50) [nM] | IC50 (FAAH) [nM] | IC50 (MAGL) [nM]
O=C(Oc1cncc(C(F)(F)F)c1)N1CCC2(CC1)CC(Oc1cccc(C(F)(F)F)c1)C2 [Example 1, 5-(Trifluoromethyl)pyridin-3-yl 2-(3-(trifluoromethyl)phenoxy)-7-azaspiro[3.5]nonane-7-carboxylate] | > 75 | < 100 | > 75 | < 100 | – | –
O=C(Oc1cncc(C(F)(F)F)c1)N1CCC2(CC1)CN(Cc1ccc(Oc3cccc(Cl)c3)cc1)C2 [Example 2, 5-(Trifluoromethyl)pyridin-3-yl 2-(4-(3-chlorophenoxy)benzyl)-2,7-diazaspiro[3.5]nonane-7-carboxylate] | – | – | – | 100 to 1000 | 1000 to 10000 | –
NC(=O)c1cncc(OC(=O)N2CCC3(CCN(Cc4cc(Cl)cc(C(F)(F)F)c4)C3)CC2)c1 [Example 3, 5-Carbamoylpyridin-3-yl 2-(3-chloro-5-(trifluoromethyl)benzyl)-2,8-diazaspiro[4.5]decane-8-carboxylate] | > 75 | < 100 | > 75 | < 100 | – | –
NC(=O)c1cncc(OC(=O)N2CCC3(CC2)CN(Cc2cccc(Oc4ccc(Cl)cc4)c2)C3)c1 [Example 5, 5-Carbamoylpyridin-3-yl 2-(3-(4-chlorophenoxy)benzyl)-2,7-diazaspiro[3.5]nonane-7-carboxylate] | > 75 | < 100 | > 75 | < 100 | – | –
O=C(Oc1cncc(C(F)(F)F)c1)N1CCC2(CC1)CN(Cc1ccc(Oc3ccccc3Cl)cc1)C2 [Example 8, 5-(Trifluoromethyl)pyridin-3-yl 2-(4-(2-chlorophenoxy)benzyl)-2,7-diazaspiro[3.5]nonane-7-carboxylate] | – | 100 to 1000 | – | – | – | < 100
O=C(Oc1cncc(C(F)(F)F)c1)N1CCC2(CC1)CN(Cc1cccc(Oc3ccccc3Cl)c1)C2 [Example 9, 5-(Trifluoromethyl)pyridin-3-yl 2-(3-(2-chlorophenoxy)benzyl)-2,7-diazaspiro[3.5]nonane-7-carboxylate] | – | 100 to 1000 | – | 100 to 1000 | – | –
O=C(Oc1cncc(C(F)(F)F)c1)N1CCC2(CC1)CN(Cc1cccc(Oc3cccc(Cl)c3)c1)C2 [Example 10, 5-(Trifluoromethyl)pyridin-3-yl 2-(3-(3-chlorophenoxy)benzyl)-2,7-diazaspiro[3.5]nonane-7-carboxylate] | – | < 100 | – | < 100 | – | –
O=C(Oc1cncc(C(F)(F)F)c1)N1CCC2(CC1)CN(Cc1cccc(Oc3cncnc3)c1)C2 [Example 11, 5-(Trifluoromethyl)pyridin-3-yl 2-(3-(pyrimidin-5-yloxy)benzyl)-2,7-diazaspiro[3.5]nonane-7-carboxylate] | – | 100 to 1000 | – | 100 to 1000 | – | –
O=C(Oc1cncc(C(F)(F)F)c1)N1CCC2(CC1)CN(Cc1cccc(Oc3cccc(C(F)(F)F)n3)c1)C2 [Example 12, 5-(Trifluoromethyl)pyridin-3-yl 2-(3-((6-(trifluoromethyl)pyridin-2-yl)oxy)benzyl)-2,7-diazaspiro[3.5]nonane-7-carboxylate] | 50 to 75 | – | > 75 | – | – | –
O=C(Oc1cncc(C(F)(F)F)c1)N1CCC2(CC1)CN(Cc1cccc(Oc3ccccc3Cl)c1Cl)C2 [Example 13, 5-(Trifluoromethyl)pyridin-3-yl 2-(2-chloro-3-(2-chlorophenoxy)benzyl)-2,7-diazaspiro[3.5]nonane-7-carboxylate] | 50 to 75 | – | > 75 | – | – | –
O=C(Oc1cncc(C(F)(F)F)c1)N1CCC2(CC1)CN(Cc1ccc(Cl)c(Oc3ccccc3)c1Cl)C2 [Example 14, 5-(Trifluoromethyl)pyridin-3-yl 2-(2,4-dichloro-3-phenoxybenzyl)-2,7-diazaspiro[3.5]nonane-7-carboxylate] | 50 to 75 | – | > 75 | – | – | –
CC1CCCN1c1ccc(CN2CCN(C(=O)Oc3cncc(C(N)=O)c3)CC2)c(OC(F)(F)F)c1 (stereo not shown) [Example 17, 5-Carbamoylpyridin-3-yl 4-(4-(2-methylpyrrolidin-1-yl)-2-(trifluoromethoxy)benzyl)piperazine-1-carboxylate] | > 75 | 100 to 1000 | > 75 | – | – | < 100
Cc1ncc(C#N)cc1OC(=O)N1CCN(Cc2cccc(C(F)(F)F)c2C)C[C@H]1C [Example 21, 5-Cyano-2-methylpyridin-3-yl (R)-2-methyl-4-(2-methyl-3-(trifluoromethyl)benzyl)piperazine-1-carboxylate] | > 75 | 100 to 1000 | 25 to 50 | – | – | 1000 to 10000
CC(C)Oc1cccc(CN2CC3(CCN(C(=O)Oc4cncc(C(F)(F)F)c4)CC3)C2)c1 [Example 22, 5-(Trifluoromethyl)pyridin-3-yl 2-(3-isopropoxybenzyl)-2,7-diazaspiro[3.5]nonane-7-carboxylate] | 50 to 75 | – | 25 to 50 | – | – | –
O=C(Oc1cncc(C(F)(F)F)c1)N1CCC2(CC1)CN(Cc1cc(Cl)cc(Oc3nc4ccccc4s3)c1)C2 [Example 23, 5-(Trifluoromethyl)pyridin-3-yl 2-(3-(benzo[d]thiazol-2-yloxy)-5-chlorobenzyl)-2,7-diazaspiro[3.5]nonane-7-carboxylate] | > 75 | < 100 | > 75 | < 100 | – | –
CC(C)Oc1cc(Cl)cc(CN2CC3(CCN(C(=O)Oc4cncc(C(F)(F)F)c4)CC3)C2)c1 [Example 24, 5-(Trifluoromethyl)pyridin-3-yl 2-(3-chloro-5-isopropoxybenzyl)-2,7-diazaspiro[3.5]nonane-7-carboxylate] | > 75 | – | > 75 | – | – | –
O=C(Oc1cncc(C(F)(F)F)c1)N1CCC2(CC1)CC(Oc1cc(Cl)cc(Cl)c1)C2 [Example 25, 5-(Trifluoromethyl)pyridin-3-yl 2-(3,5-dichlorophenoxy)-7-azaspiro[3.5]nonane-7-carboxylate] | > 75 | 100 to 1000 | > 75 | – | – | < 100
O=C(Oc1cncc(C(F)(F)F)c1)N1CCC2(CC1)CC(Oc1cccc(C(=O)N3CCCC3)c1)C2 [Example 26, 5-(Trifluoromethyl)pyridin-3-yl 2-(3-(pyrrolidine-1-carbonyl)phenoxy)-7-azaspiro[3.5]nonane-7-carboxylate] | > 75 | 100 to 1000 | > 75 | – | – | < 100
O=C(Oc1cncc(C(F)(F)F)c1)N1CCC2(CC1)CC(Oc1cc(Cl)ccc1Cl)C2 [Example 27, 5-(Trifluoromethyl)pyridin-3-yl 2-(2,5-dichlorophenoxy)-7-azaspiro[3.5]nonane-7-carboxylate] | > 75 | – | > 75 | – | – | –
O=C(Oc1cncc(C(F)(F)F)c1)N1CCC2(CC1)CC(Oc1ccc(-c3ccccc3)cc1)C2 [Example 28, 5-(Trifluoromethyl)pyridin-3-yl 2-([1,1′-biphenyl]-4-yloxy)-7-azaspiro[3.5]nonane-7-carboxylate] | > 75 | < 100 | > 75 | < 100 | – | –
O=C(Oc1cncc(C(F)(F)F)c1)N1CCC2(CC1)CC(Oc1cccc(COc3ccc(Cl)cc3)c1)C2 [Example 29, 5-(Trifluoromethyl)pyridin-3-yl 2-(3-((4-chlorophenoxy)methyl)phenoxy)-7-azaspiro[3.5]nonane-7-carboxylate] | > 75 | – | > 75 | 100 to 1000 | < 100 | –
O=C(Oc1cncc(C(F)(F)F)c1)N1CCC2(CC1)CN(Cc1ccc(Oc3ccc(Cl)cc3)cc1)C2 [Example 30, 5-(Trifluoromethyl)pyridin-3-yl 2-(4-(4-chlorophenoxy)benzyl)-2,7-diazaspiro[3.5]nonane-7-carboxylate] | – | – | – | 100 to 1000 | 1000 to 10000 | –
O=C(Oc1cncc(C(F)(F)F)c1)N1CCC2(CC1)CN(Cc1cccc(Oc3ccc(Cl)cc3)c1)C2 [Example 31, 5-(Trifluoromethyl)pyridin-3-yl 2-(3-(4-chlorophenoxy)benzyl)-2,7-diazaspiro[3.5]nonane-7-carboxylate] | – | – | – | 100 to 1000 | < 100 | –
O=C(Oc1cncc(C(F)(F)F)c1)N1CCC2(CC1)CN(Cc1cccc(Oc3ccnnc3)c1)C2 [Example 33, 5-(Trifluoromethyl)pyridin-3-yl 2-(3-(pyridazin-4-yloxy)benzyl)-2,7-diazaspiro[3.5]nonane-7-carboxylate] | 25 to 50 | – | 50 to 75 | – | – | –
O=C(Oc1cncc(C(F)(F)F)c1)N1CCC2(CC1)CN(Cc1ccc(Oc3cncnc3)cc1)C2 [Example 34, 5-(Trifluoromethyl)pyridin-3-yl 2-(4-(pyrimidin-5-yloxy)benzyl)-2,7-diazaspiro[3.5]nonane-7-carboxylate] | – | – | – | 100 to 1000 | 1000 to 10000 | –
O=C(Oc1cncc(C(F)(F)F)c1)N1CCC2(CC1)CN(Cc1cccc(Oc3cc(Cl)cc(Cl)c3)c1)C2 [Example 35, 5-(Trifluoromethyl)pyridin-3-yl 2-(3-(3,5-dichlorophenoxy)benzyl)-2,7-diazaspiro[3.5]nonane-7-carboxylate] | > 75 | – | > 75 | – | – | –
O=C(Oc1cncc(C(F)(F)F)c1)N1CCC2(CC1)CN(Cc1cccc(Oc3ccc(C(F)(F)F)cn3)c1)C2 [Example 37, 5-(Trifluoromethyl)pyridin-3-yl 2-(3-((5-(trifluoromethyl)pyridin-2-yl)oxy)benzyl)-2,7-diazaspiro[3.5]nonane-7-carboxylate] | > 75 | – | > 75 | – | – | –
O=C(Oc1cncc(C(F)(F)F)c1)N1CCC2(CC1)CN(Cc1cccc(Oc3ccc(C(F)(F)F)nc3)c1)C2 [Example 39, 5-(Trifluoromethyl)pyridin-3-yl 2-(3-((6-(trifluoromethyl)pyridin-3-yl)oxy)benzyl)-2,7-diazaspiro[3.5]nonane-7-carboxylate] | > 75 | 100 to 1000 | > 75 | 100 to 1000 | – | –
CC(C)Oc1cc(CN2CCN(C(=O)Oc3cncc(C(N)=O)c3)[C@@H](C)C2)ccc1Cl [Example 57, (S)-5-Carbamoylpyridin-3-yl 4-(4-chloro-3-isopropoxybenzyl)-2-methylpiperazine-1-carboxylate] | – | – | > 75 | – | – | –
